According to patent publication US10946071B2 (MediciNova, Inc., priority 2018, dated 2021):

Tests used:
[1] = system: subjects with primary or secondary progressive multiple sclerosis; test: Phase 2 randomized, double-blind, placebo-controlled 96 week study: progression of disability (EDSS), Cox proportional-hazards regression; assay type: in vivo, human; details: for Risk of Confirmed Disability Progression: Cox Hazard Ratio (ibudilast vs. placebo): ibudilast 100 mg/d, 90% CI
Experimental: A total of 255 male and female subjects from 21 to 65 years old, inclusive, were enrolled into one of two treatment arms (ibudilast 100 mg/d or matching-placebo). […] During the study, subjects were allowed to change medications from one injectable to the other. […] Inhaled and topical steroids are allowed. If a relapse episode occured, a single course of systemic corticosteroids was permitted, as prescribed by the treating neurologist. Subjects returned to the clinic for follow-up visits on a regular basis at Week 4, 8, 12, 24, 36, 48, 60, 72, 84 and 96.
The double-blind Treatment Phase consisted of a Baseline visit followed by 10 scheduled clinic visits. The Baseline Visit had to have occured within 45 days following the Screening Visit. At the Baseline Visit (Day 1), subjects who completed all of the screening assessments and continued to meet eligibility criteria were randomized to one of two treatment groups (ibudilast 100 mg/d or placebo) in a 1:1 ratio.
Subjects took their first dose of study medication (30 mg ibudilast or placebo) on the evening of the Baseline Visit (Day 1). On the morning of Day 2, all subjects begun a 3 capsule BID dosing regimen through Day 14. Subjects randomized to ibudilast started at 60 mg/d (30 mg BID) on Day 2 and remained on 60 mg/d through Day 14. Beginning on Day 15, all subjects increased dosing to 5 capsules BID regimen; those randomized to the ibudilast treatment arm were taking 100 mg/d.
After Day 15, subjects with intolerable side-effects (e.g., nausea, diarrhea, vertigo) were allowed to reduced their dose to either 4 capsules twice a day (80 mg/d for those taking ibudilast) or 3 capsules twice a day (60 mg/d for those taking ibudilast). Subjects with intolerable side-effects (e.g., nausea, diarrhea, vertigo) at the end of Day 14 were allowed to continue taking 3 capsules twice a day at the Investigator's discretion. At the Investigator's discretion, the daily dose of ibudilast were potentially adjusted between 3 capsules twice a day, 4 capsules twice a day, and 5 capsules twice a day over the first 8 weeks of treatment. At the Investigator's discretion, the daily dose of ibudilast could have been divided and taken three times per day if needed to improve tolerability. […] The dosing interval was either twice a day or 3 times per day, at the Investigator's discretion. The dosing interval could also be changed to between twice and three times per day over the course of the entire study, at the Investigator's discretion.
Progression of disability was measured according to the score on the Expanded Disability Status Scale (EDSS; range, 0 to 10 in 0.5-point increments, with higher scores indicating more disability) with the use of Cox proportional-hazards regression. Confirmed disability progression was defined as an increase in the EDSS score of at least 1.0 point from baseline (or an increase of ≥0.5 points for patients with a baseline EDSS score of >5.0) that was sustained for at least 20 weeks.

[2] = Sanftner et al., Xenobiotica 2009; cited from earlier work

CC(C)C(=O)c1c(C(C)C)nn2ccccc12 [ibudilast, 3-isobutyryl-2-isopropylpyrazolo[1,5-a]pyridine]
hazard ratio for 20-week confirmed disability progression (as measured by the EDSS score) with ibudilast as compared with placebo ([1]; all subjects, ibudilast 100 mg/d oral vs placebo, 96 weeks, 95% CI): 0.74 | probability of no progression at week 72 ([1]; subgroup receiving interferon-beta, ibudilast arm (placebo arm 0.804)): 0.952 | proportion of subjects with disability progression at week 96 (not confirmed progression): ibudilast vs. placebo risk difference ([1]; subgroup receiving interferon-beta, week 96, 90% CI: −0.499 to −0.068): −0.283 | time to confirmed disability progression, ibudilast compared with placebo (in words) ([1]; subgroup taking GA as concomitant medication): the placebo arm was superior to ibudilast | Risk of Confirmed Disability Progression: Cox Hazard Ratio (ibudilast vs. placebo) ([1]; subgroup: concomitant medication taking GA (glatiramer acetate)): 1.229 | Risk of Confirmed Disability Progression: Cox Hazard Ratio (ibudilast vs. placebo) ([1]; subgroup: concomitant medication taking Interferon-Beta): 0.238 | Risk of Confirmed Disability Progression: Cox Hazard Ratio (ibudilast vs. placebo) ([1]; subgroup: no concomitant glatiramer acetate or interferon-beta): 0.672 | time to confirmed disability progression, ibudilast compared with placebo (in words) ([1]; the other two subgroups (concomitant interferon-beta; no concomitant medication)): ibudilast was better than placebo | CNS penetration [2]: good CNS penetration
